Assay results: patent publication US6395766B1, “Tetrahydroindolone derivatives as gabaaalpha5 ligands for enhancing cognition” (Merck Sharp & Dohme Limited, priority 1998, dated 2002)

SMILES | melting point [°C]
CC1(C)CC(=O)c2c(-c3ccccc3)cn(-c3ccccn3)c2C1 [Example 16, 6,6-Dimethyl-3-phenyl-1-(pyridin-2-yl)-4,5,6,7-tetrahydroindol-4-one] | 160 to 162
CC1(C)CC(=O)c2c(-c3ccccn3)cn(-c3ccccn3)c2C1 [Example 17, 6,6-Dimethyl-1-(pyridin-2-yl)-3-(pyridin-2-yl)-4,5,6,7-tetrahydroindol-4-one] | 171 to 174
CC1(C)CC(=O)c2c(Nc3ccccn3)cn(-c3ccccn3)c2C1 [Example 23, 6,6-Dimethyl-1-(pyridin-2-yl)-3-(pyridin-2-ylamino)-4,5,6,7-tetrahydroindol-4-one] | 180 to 183
CC1(C)CC(=O)c2c(-c3cncs3)cn(-c3ccccn3)c2C1 [Example 21, 6,6-Dimethyl-1-(pyridin-2-yl)-3-(thiazol-5-yl)-4,5,6,7-tetrahydroindol-4-one] | 167 to 169
CC1(C)CC(=O)c2c(SCc3ccccc3)cn(-c3ccccn3)c2C1 [Example 14, 6,6-Dimethyl-3(phenylmethyl)thio-1-(pyridin-2-yl)-4,5,6,7-tetrahydroindol-4-one] | 190 to 192
CC1(C)CC(=O)c2c(Nc3ccccc3)cn(-c3ccccn3)c2C1 [Example 22, 6,6-Dimethyl-3-phenylamino-1-(pyridin-2-yl)-4,5,6,7-tetrahydroindol-4-one] | 135 to 138
CC1(C)CC(=O)c2c(-c3nccs3)cn(-c3ccccn3)c2C1 [Example 15, 6,6-Dimethyl-1-(pyridin-2-yl)-3-(thiazol-2-yl)-4,5,6,7-tetrahydroindol-4-one] | 166 to 168

The next lines start with the values.

melting point [°C] | SMILES
150 to 154 | C=Cc1cn(-c2ccccn2)c2c1C(=O)CC(C)(C)C2 [Example 18, 6,6-Dimethyl-1-(pyridin-2-yl)-3-vinyl-4,5,6,7-tetrahydroindol-4-one]
111 to 113 | CC1(C)CC(=O)c2c(Cc3ccccc3)cn(-c3ccccn3)c2C1 [Example 19, 6,6-Dimethyl-3-phenylmethyl-1-(pyridin-2-yl)-4,5,6,7-tetrahydroindol-4-one]
143 to 145 | CC1(C)CC(=O)c2c(C(C)(C)C)cn(-c3ccccn3)c2C1 [Example 2, 6,6-Dimethyl-3-(1,1-dimethylethyl)-1-(pyridin-2-yl)-4,5,6,7-tetrahydroindol-4-one]
58 to 60 | CCc1cn(-c2nccs2)c2c1C(=O)CC(C)(C)C2 [Example 5, 6,6-Dimethyl-3-ethyl-1-(thiazol-2-yl)-4,5,6,7-tetrahydroindol-4-one]
111 to 114 | CCc1cn(-c2ncccn2)c2c1C(=O)CC(C)(C)C2 [Example 4, 3-Ethyl-6,6-dimethyl-1-(pyrimidin-2-yl)-4,5,6,7-tetrahydroindol-4-one]
125 to 127 | CCc1cn(-c2ccccn2)c2c1C(=O)CC(C)(C)C2 [Example 1, 6,6-Dimethyl 3-Ethyl-1-(pyridin-2-yl)-4,5,6,7-tetrahydroindol-4-one]
